Values of other authors, collected in paper PMC9605497, “Potential of Epidermal Growth Factor-like Peptide from the Sea Cucumber Stichopus horrens to Increase the Growth of Human Cells: In Silico Molecular Docking Approach” (Marine Drugs, 2022).

Columns and labels:
[1] = tested on: human skin model; settings: 50 nM, compared to 0.1 nM and 10 nM EGF; ref [18]; cited from earlier work
Excerpt: Despite these nutritional properties that could be indirectly associated with the wound healing benefit of this marine organism, the full potential of sea cucumber as a source of marine therapeutic product remains unexplored and limited to the previous approaches of specific metabolite identification. Among the prospective molecules to be investigated are growth factors and cytokines, which are examples of important mitogens that ensure an effective wound healing process. Several mitogens are involved directly as growth factors in cell proliferation such as epidermal growth factor (EGF) ...

[2] = tested on: CHO cells; settings: ref [76] Zhao et al., cited from earlier work
Experimental: (§1) The rationale of testing peptide concentrations at 10 nM was based on a study done by Clark et al.. In the study, the EGFR expression in carcinoma cells was prolonged for 10 h when 10 nM of EGF was exerted, as compared to only 4 h of EGFR expression in 0.4 nM EGF. This is supported by another experiment by Zhao et al. where cell proliferation of CHO cells can only be induced when exerted with EGF concentrations below 0.1 ng/mL. In contrast, cell proliferation at higher EGF concentrations (1 to 100 ng/mL) was suppressed. The process of EGF binding to its receptor and the internali ...

[3] = tested on: carcinoma cells; settings: 10 nM EGF; ref [75] Clark et al.; cited from earlier work
Experimental: as §1

[4] = tested on: HeLa cells; settings: ref [77]; cited from earlier work
Experimental: as §1

[5] = target: EGFR; settings: SPR and AFM, experimental; ref [41] Kuo et al.; read-out: dissociation constant (Kd) of EGF and EGFR complex; cited from earlier work
Excerpt: The values are different because docking is based on the scoring functions used. […] A lower Kd value means dissociation occurs at a slow rate and the binding affinity (Ka) between these ...

[6] = tested on: receptors (EGFR); settings: 0.156 to 5 ng/mL biotinylated EGF; ref [46] King et al.; cited from earlier work
Experimental: The increasing binding activity was determined by both the concentration of biotinylated EGF tested and the number of cells used. In this study, inoculating about 80,000 cells gives a reproducible result as opposed to when lower number of cells was used. Increasing the ligand concentration could improve assessment of the binding signal of Sh-EGFl-1 peptide with human EGFR s ...

Substance	DNA synthesis [1]	cell proliferation at higher EGF concentrations ([2]; 1 to 100 ng/mL)	EGF concentration inducing cell proliferation ([2]; CHO cells)	duration of EGFR expression [3] [h]	time for EGF binding and internalization of receptor [4]	Kd [5] [nM]	absorbance reading [6]
Human EGF: human EGF (chain C) of crystal structure 1IVO; also EGF of cited literature (MNSDSECPLSHDGYCLHDGVCMYIEALDKYACNCVVGYIGERCQYRDLKWWELR; biotin (conjugated with NHS-biotin; sites not stated))	maximum increase of DNA synthesis	suppressed	below 0.1 ng/mL	10	less than 30 min	~177	
biotinylated EGF: biotinylated EGF used by King et al.							consistent increases in the absorbance reading
